For this assay, the target named is recombinant human CCR5 receptor (Homo sapiens, UniProt P51681). Kind of assay: in vitro radioligand binding assay: inhibition of iodinated MIP-1α binding to CCR5 membranes (scintillation proximity). The settings on record: displacement of 0.1 nM iodinated MIP-1α; membranes from Chinese hamster ovary cells expressing recombinant human CCR5; average if tested more than once. As to the method: The ability of compounds to inhibit the binding of MIP-1α was assessed by an in vitro radioligand binding assay. Membranes were prepared from Chinese hamster ovary cells which expressed the recombinant human CCR5 receptor. These membranes were incubated with 0.1 nM iodinated MIP-1α, scintillation proximity beads and various concentrations of the compounds of the invention in 96-well plates. The amount of iodinated MIP-1α bound to the receptor was determined by scintillation counting. Competition curves were obtained for compounds and the concentration of compound which displaced 50% of bound iodinated MIP-1α was calculated (IC50).
Chain of recombinant human CCR5 receptor (P51681 whole entry): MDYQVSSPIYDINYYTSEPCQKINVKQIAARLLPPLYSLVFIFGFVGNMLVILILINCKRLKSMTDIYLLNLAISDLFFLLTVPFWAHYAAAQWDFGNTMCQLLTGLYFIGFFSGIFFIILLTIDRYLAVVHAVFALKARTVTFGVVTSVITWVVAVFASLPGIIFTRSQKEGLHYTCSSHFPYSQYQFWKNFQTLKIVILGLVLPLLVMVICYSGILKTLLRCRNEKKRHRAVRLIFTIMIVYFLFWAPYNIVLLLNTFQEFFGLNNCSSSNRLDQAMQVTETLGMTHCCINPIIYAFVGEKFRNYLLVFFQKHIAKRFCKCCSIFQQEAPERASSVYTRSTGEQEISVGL
In Table VI the results are presented as Pic50 values. A Pic50 value is the negative log (to base 10) of the IC50 result, so an IC50 of 1 μM (that is 1×10^−6M) gives a Pic50 of 6. If a compound was tested more than once then the data below is an average of the probative tests results.

Turning to `CC(=O)Nc1ccc(S(=O)(=O)NCC2CCN(CC[C@@H](c3cc(F)cc(F)c3)C3CCN(S(C)(=O)=O)CC3)CC2)cc1` [Compound 4 (Table I), N-[4-({[(1-{(3R)-3-(3,5-difluorophenyl)-3-[1-(methylsulfonyl)piperidin-4-yl]propyl}piperidin-4-yl)methyl]amino}sulfonyl)phenyl]-acetamide], the half-maximal inhibitory concentration (IC50) is 7.94 nM.

With `CS(=O)(=O)c1ccc([C@@H](CCN2CCC(CNS(=O)(=O)c3ccc(NS(=O)(=O)C(F)(F)F)cc3)CC2)c2cc(F)cc(F)c2)cc1` [Compound 16 (Table II), N-[(1-{(3R)-3-(3,5-difluorophenyl)-3-[4-(methylsulfonyl)phenyl]propyl}piperidin-4-yl)methyl]-4-{[(trifluoromethyl)sulfonyl]amino}-benzenesulfonamide], the IC50 is 50.1 nM.

Take `CS(=O)(=O)c1ccc([C@@H](CCN2CCC(CNS(=O)(=O)c3ccc(-c4nnn[nH]4)cc3)CC2)c2cc(F)cc(F)c2)cc1` [Compound 19 (Table II), N-[(1-{(3R)-3-(3,5-difluorophenyl)-3-[4-(methylsulfonyl)phenyl]propyl}piperidin-4-yl)methyl]-4-(1H-tetrazol-5-yl)-benzenesulfonamide]: the IC50 is 7.94 nM.
